These results are taken from article PMC7546004, “Targeting BCL10 by small peptides for the treatment of B cell lymphoma” (Theranostics, 2020).

Each structure is given as a SMILES string. Square brackets hold non-standard residues; d marks the D form. Peptide text beside a SMILES is read from it.

In one series the target is T1, MBP-BCL10 (Homo sapiens, UniProt O95999).
T1 construct: made in house
Kind of series: Co-immunoprecipitation of peptide with MBP-BCL10. It is filed as binding. The conditions noted are these: biotinylated peptide, streptavidin beads, 4 °C. On the procedure:
(§1) MBP-Bcl10 was expressed and purified as previously described {Qiao, 2013 #85}. Purified
(§2) mM NaCl, 1% NP-40) at 4 °C for 1 hour, followed by addition of 5% BSA blocked S t re ptavidin (SAV)
(§3) Immunoprecipitant were washed 5 times with IP buffer and separated by SDS-PA G E . […]
(§4) hActin- F: 5’-[…]-3’
(§5) hIL6-R: 5’- […]-3 ’.
(§6) hBcl10-F: 5’-[…] TAGAAA-3’

Series [1] concerns SU-DHL6 cell xenograft tumors. Kind of series: Mouse xenograft model. The format is in vivo, NCG mice. The conditions noted are these: DRI-BCL10-P4 10 mg/kg Q.d. or BCL10-Ctl 5 mg/kg Q.d., i.v.; n=8; p=0.049, Mann-Whitney U test. On the procedure:
(§7) Mouse xenograft experiments:
(§8) Six-week-old female NOD prkdc-/- IL-2Rg-/- (NCG) mice purchased from GemPharmatech Co., Lt d we re raised in a SPF- level Laboratory Animal Room. Low -passage 5x106 human TMD8, SU-DHL- 6 or 1x10^7 OCl-LY1 cells at 100μl were premixed with 100μl Matrigel (Corning Biocoat, cat. # 354234) and inoculated subcutaneously into the right flank of mice. When tumors reached an average size of 150 mm3, mice were randomly assigned into treatment groups (10 mg /kg DRI-BCL10- P4) or control groups (5 mg /kg BCL10- Ctl). Peptides were reconstituted in 5% DMSO/PBS and administered by i.v. injection. Tumor volumes were monitored by a digital caliper every other day and calculated using the formula: (smallest diameter2 x largest diameter)/2. Mice were weighed every day and sacrificed at the end of the treatment. T umors and main organs were harvested and we i ghte d at the moment of death. All animal experiments were approved by the Animal Institute Committee of Changhai Hospital, the Second Military Medical University.
(§9) Immunohistochemistry (IHC)
(§10) Formalin-fixed paraffin -embedded tumor xenografts were sectioned, dewaxed and submitted to antigen retrieval. The anti- Ki67 (proteintech, 27309-1) antibody was used at a 1:500 dilution.
(§11) Biotin-conjugated secondary antibodies (MXB biotechnologies, KIT-9710) were used. […]

In a further series the test system is NF-κB signalling pathway. Kind of series: Western blot of NF-κB pathway proteins (IKKβ, p-IKKβ, IκBα, p-IκBα). The format is cell-based. The conditions noted are these: 12 h, indicated concentrations; Figure 6E. On the procedure:
Cell pellets were lysed in RIPA buffer (50 mM Tris at pH 8.0, 150 mM NaCl, 1% NP-40, 1 mM EDTA, and 1X protease inhibitor cocktail) or RIPA buffer containing 0.1% SDS. Equal amounts of protein extracts were separated by SDS-PAGE and blotted onto polyvinylidene difluoride (PVDF) membranes. The following Antibodies were purchased and used in this study: anti-IκBα (10268-1), anti-IKKβ (20979-1), anti-Bcl2 (12789-1-AP), anti-GAPDH (10494-1-AP), and anti-β-actin (66009-1-AP) were from Proteintech; anti-p-IκBα (2859S), anti-p-IKKβ (2697S), anti-RelB (10544), anti-α-tubulin (5335), anti-PARP (9532S), and anti-CARMA1 (4435) were from Cell Signaling Technology; anti-β-actin (A1978) was from Sigma; anti-Bcl10 (A1106) was from ABclonal; anti-A20 (sc-166692), anti-CYLD (sc-74435), and anti-MALT1 (sc-46677) were from Santa Cruz; anti-HOIL-1 (HPA024185) was from Atlas Antibodies; and anti-Myc (ab9106) was from Abcam.
Background: A western blot detects proteins with antibodies after separation by electrophoresis.

Series [2] concerns HBL1 cells. Kind of series: Intracellular pharmacokinetics, BCL10-P4 versus DRI-BCL10-P4. On the procedure: as §1, §2, §3, §4, §5, §6
hBcl10-R: 5’-[…] T-3’
1x105 HBL1, TMD8, OCl-LY 1 , OCl-LY 1 , U2932, MD901 or RCK8 cells were seeded in 12-well plate
wa sh e d and lysed with RIPA buffer.
immunoblotting with Streptavidin (Cell signaling, cat. #3999S). […]

In series [3] the test system is TMD8 cell xenograft tumors. The experiment in a line: Mouse xenograft model. It is filed as in vivo, NCG mice. On the procedure:
as §7, §8, §9, §10
(§12) Biotin-conjugated secondary antibodies (MXB biotechnologies, KIT-9710) were used. Then avidin/biotin peroxidase (MXB biotechnologies, KIT-9710) was applied to the slides. Color was developed with diaminobenzoate chromogen peroxidase substrate (MXB biotechnologies, MAX007TM) and counterstained with […] (MXB biotechnologies, MAX007TM). Pictures were obtained using NanoZoomer-S60 microscope ([…]).
(§13) Terminal deoxynucleotidyl transferase dUTP nick end labeling, TUNEL assay was used to detect apoptotic DNA fragmentation. All the experiments were performed according to the kit (KeyGEN Biotech, KGA703) instructions. Briefly, formalin-fixed paraff i n-embedded xenografted tumors were deparaffinized and pre-treated with trypsin to expose DNA. Endogenous peroxidase was quenched using 3% hydrogen peroxide followed by incubation with TdT enzyme for 1 hour. Then, antidigoxigenin-peroxidase was applied to the slides. Color was developed with diaminobenzoate chromogen peroxidase substrate and counterstained with methyl green. Pictures were obtained using NanoZoomer-S60 microscope ([…]).

For series [4], the system named is OCI-LY1 cell xenograft tumors. Kind of series: Mouse xenograft model. The conditions noted are these: DRI-BCL10-P4 10 mg/kg or BCL10-Ctl 5 mg/kg daily, i.v.; Figure S8A-C. The format is in vivo, NCG mice. On the procedure: as §7, §8, §9, §10, §12, §13
Series [5] is described as follows: Tolerability in xenograft mice (body weight, histology of major organs). The format is in vivo, NCG mice. On the procedure:
as §7, §8, §9, §10, §11

A further series concerns DLBCL cell lines. It is filed as cell-based. The conditions noted are these: Figure 6D and Figure S7D. From the text: (§14) GraphPad Prism software was used to determine GI50 values.
Series [6] deals with HBL1 cells. The format is cell-based.
From the text: as §14

[7] abbreviates: TMD8 xenograft, 10 mg/kg, compared with control group.

T1 sequence (O95999 whole entry): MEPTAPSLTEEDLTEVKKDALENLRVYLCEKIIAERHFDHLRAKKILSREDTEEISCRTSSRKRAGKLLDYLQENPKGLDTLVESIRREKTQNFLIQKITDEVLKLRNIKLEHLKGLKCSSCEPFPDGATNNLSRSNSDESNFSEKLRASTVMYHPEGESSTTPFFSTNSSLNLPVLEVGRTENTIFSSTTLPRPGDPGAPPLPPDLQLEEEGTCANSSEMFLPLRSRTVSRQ

Take `CC[C@@H](C)[C@@H](NC(=O)[C@@H](CCCCN)NC(=O)[C@H](NC(=O)[C@@H](Cc1c[nH]c2ccccc12)NC(=O)[C@@H](Cc1ccccc1)NC(=O)[C@@H](CCC(N)=O)NC(=O)[C@@H](CC(N)=O)NC(=O)[C@@H](CCCNC(=N)N)NC(=O)[C@@H](CCCNC(=N)N)NC(=O)[C@@H](CCSC)NC(=O)[C@@H](CCCCN)NC(=O)[C@@H](Cc1c[nH]c2ccccc12)NC(=O)[C@@H](CCCCN)NC(=O)[C@@H](CCCCN)NC(=O)[C@@H](CCCNC(=N)N)NC(=O)[C@H](NC(=O)[C@@H](CO)NC(=O)[C@@H](CO)NC(=O)[C@@H](CCCNC(=N)N)NC(=O)[C@@H](CCCCN)NC(=O)[C@@H](CCCNC(=N)N)NC(=O)[C@@H](C)NC(=O)CNC(=O)[C@@H](CCCCN)NC(=O)[C@@H](CC(C)C)NC(=O)[C@@H](CC(C)C)NC(=O)[C@@H](CC(=O)O)NC(=O)[C@@H](Cc1ccc(O)cc1)NC(=O)[C@@H](CC(C)C)NC(=O)[C@@H](CCC(N)=O)NC(=O)[C@H](N)CCC(=O)O)[C@H](C)O)[C@H](C)CC)C(=O)N[C@H](CCC(N)=O)C(=O)N[C@H](CCCNC(=N)N)C(=O)N[C@H](CC(=O)O)C(=O)O` [DRI-BCL10-P4] (H-[dE][dQ][dL][dY][dD][dL][dL][dK]G[dA][dR][dK][dR][dS][dS][dT][dR][dK][dK][dW][dK][dM][dR][dR][dN][dQ][dF][dW][dI][dK][dI][dQ][dR][dD]-OH): the “interaction with MBP-BCL10 (co-immunoprecipitation)” value at MBP-BCL10 is “interacted with BCL10”. Further, the “growth of SU-DHL6 cell xenograft tumors” value in series [1] was “significantly inhibited the growth”. In the series on NF-κB signalling pathway, the “NF-κB pathway activation in HBL1 and TMD8 cells” value is reported as “repressed NF-κB pathway activation”; the “NF-κB pathway activation in OCI-LY1 cells” value is “but not in OCI-LY1 cells”. Further, in the series with HBL1 cells [2], the “intracellular level after the first 4 h (intracellular stability)” value is “maintained for a much longer time”; the “uptake by HBL1 cells and level within the first 4 h” value is reported as “similarly taken up”. Further, the “growth of TMD8 cell xenograft tumors” value in [3] (DRI-BCL10-P4 10 mg/kg Q.d. or BCL10-Ctl 5 mg/kg Q.d., i.v., n=8, p=0.013, Mann-Whitney U test) is recorded as “significantly inhibited the growth”. In series [3] (setting [7]), the “apoptosis rate in tumor sections (TUNEL staining)” value is on record as “significant increase in the apoptosis rate” and the “proliferation in tumor sections (Ki67 staining)” value was “significant decrease in the proliferation”. In [4], the “growth of OCI-LY1 cell xenograft tumors” value is “neither peptide significantly suppressed the growth”. The “adverse effects in the mice (body weight)” value in series [5] (10 mg/kg Q.d., i.v., Figure 7C-F) was “without inducing notable adverse effects”. In addition, the “histological examination of the major organs (H&E)” value in series [5] (10 mg/kg daily for 11 days, Figure S8D) was “did not result in discernible damage to these organs”. Moreover, the “growth of CB-SMOC-dependent cell lines (HBL1, TMD8 and SU-DHL4 cells)” value with DLBCL cell lines was “selectively suppressed the growth of CB-SMOC-dependent cell lines”. Halving of growth with HBL1 cells [6] (GI50) required 6.78 ± 3.7 µM.

Usually GI50 stands for the concentration at which growth is held to half of that of the control. Read a low GI50 as greater sensitivity of the cells.
